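Five compound concentrations were applied to cells in 96-well plates for 48 hours; endpoints were derived by simple linear interpolation of the resulting dose-response curve. At the TGI there is no net growth.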
Key:
Experiment in all cases: NCI anticancer screen, dose series, 48 h
HS 578T breast = system: HS 578T breast
HCC-2998 colon = system: HCC-2998 colon
SNB-19 CNS = system: SNB-19 CNS
SR leukemia = system: SR leukemia
RPMI-8226 leukemia = system: RPMI-8226 leukemia
NCI/ADR-RES ovarian = system: NCI/ADR-RES ovarian
NCI-H226 lung = system: NCI-H226 lung
OVCAR-8 ovarian = system: OVCAR-8 ovarian
SN12C renal = system: SN12C renal
NCI-H23 lung = system: NCI-H23 lung
MCF7 breast = system: MCF7 breast
MDA-MB-435 = system: MDA-MB-435
MOLT-4 leukemia = system: MOLT-4 leukemia
U251 CNS = system: U251 CNS
ACHN renal = system: ACHN renal
HCT-116 colon = system: HCT-116 colon
NCI-H460 lung = system: NCI-H460 lung
KM12 colon = system: KM12 colon
SK-MEL-5 melanoma = system: SK-MEL-5 melanoma
BT-549 breast = system: BT-549 breast
IGROV1 ovarian = system: IGROV1 ovarian
CCRF-CEM leukemia = system: CCRF-CEM leukemia
SK-MEL-28 melanoma = system: SK-MEL-28 melanoma
A549 NSCLC = system: A549 NSCLC
OVCAR-5 ovarian = system: OVCAR-5 ovarian
SF-268 CNS = system: SF-268 CNS
DU-145 prostate = system: DU-145 prostate
HOP-92 NSCLC = system: HOP-92 NSCLC
786-0 renal = system: 786-0 renal
UACC-257 melanoma = system: UACC-257 melanoma
COLO 205 colon = system: COLO 205 colon
EKVX NSCLC = system: EKVX NSCLC
T-47D breast = system: T-47D breast
TK-10 renal = system: TK-10 renal
HL-60(TB) leukemia = system: HL-60(TB) leukemia
SF-539 CNS = system: SF-539 CNS
UO-31 renal = system: UO-31 renal
HOP-62 NSCLC = system: HOP-62 NSCLC
SNB-75 CNS = system: SNB-75 CNS
MDA-N = system: MDA-N
RXF 393 renal = system: RXF 393 renal
M14 melanoma = system: M14 melanoma
PC-3 prostate = system: PC-3 prostate
HCT-15 colon = system: HCT-15 colon
OVCAR-3 ovarian = system: OVCAR-3 ovarian
SF-295 CNS = system: SF-295 CNS
A498 renal = system: A498 renal
K-562 leukemia = system: K-562 leukemia
SK-OV-3 ovarian = system: SK-OV-3 ovarian
SW-620 colon = system: SW-620 colon
MALME-3M melanoma = system: MALME-3M melanoma
UACC-62 melanoma = system: UACC-62 melanoma
HT29 colon = system: HT29 colon
OVCAR-4 ovarian = system: OVCAR-4 ovarian
NCI-H522 lung = system: NCI-H522 lung
LOX IMVI melanoma = system: LOX IMVI melanoma
MDA-MB-231 breast = system: MDA-MB-231 breast
SK-MEL-2 melanoma = system: SK-MEL-2 melanoma
CAKI-1 renal = system: CAKI-1 renal

Measured: TGI

Cc1cc2ccccc2n2c1nc1ccccc12
76.7 µM: A498 renal
not listed: OVCAR-4 ovarian | NCI-H522 lung | LOX IMVI melanoma | MDA-MB-231 breast | SK-MEL-2 melanoma | CAKI-1 renal
> 100 µM: all other assays above

CC(=O)C(=C(c1ccccc1)c1ccccc1)c1ccccc1
80.2 µM: EKVX NSCLC
not listed: IGROV1 ovarian | A498 renal | SK-MEL-2 melanoma | CAKI-1 renal
> 100 µM: all other assays above

O=C1c2ccccc2C(O)(O)C1(O)C1(O)C(=O)c2ccccc2C1(O)O (stereo not drawn)
39.4 µM: SK-MEL-5 melanoma
40.5 µM: COLO 205 colon
60.3 µM: T-47D breast
38.2 µM: NCI-H23 lung
47.9 µM: ACHN renal
65.9 µM: OVCAR-3 ovarian
30.5 µM: MCF7 breast
58.3 µM: LOX IMVI melanoma
44.1 µM: HCT-15 colon
44.7 µM: CCRF-CEM leukemia
44.5 µM: NCI-H522 lung
72.3 µM: SNB-75 CNS
37.3 µM: NCI-H460 lung
53.2 µM: HL-60(TB) leukemia
58.1 µM: TK-10 renal
54.3 µM: MALME-3M melanoma
48 µM: MDA-N
54.1 µM: HCT-116 colon | HOP-62 NSCLC
81.8 µM: RXF 393 renal
88.5 µM: SF-295 CNS
32.8 µM: MDA-MB-435
30.6 µM: SN12C renal
48.7 µM: UO-31 renal
not listed: HCC-2998 colon | SR leukemia | MOLT-4 leukemia | UACC-257 melanoma | K-562 leukemia
> 100 µM: all other assays above

O=C(O)c1nc2cc(C(F)(F)F)ccc2nc1Nc1ccc(F)cc1
46.9 µM: BT-549 breast
91 µM: MDA-N
48.5 µM: LOX IMVI melanoma
30.3 µM: KM12 colon
59.5 µM: U251 CNS
31.6 µM: PC-3 prostate
35.8 µM: UO-31 renal
49.5 µM: SNB-75 CNS
74.7 µM: CAKI-1 renal
49.8 µM: OVCAR-3 ovarian
89.6 µM: EKVX NSCLC
82.4 µM: M14 melanoma
35.2 µM: ACHN renal
75.4 µM: NCI-H522 lung
39.3 µM: HOP-92 NSCLC
55 µM: SR leukemia
55.9 µM: IGROV1 ovarian
38.2 µM: NCI-H23 lung
74.3 µM: HS 578T breast
72.9 µM: MCF7 breast
36 µM: RXF 393 renal
81.7 µM: OVCAR-8 ovarian
68.8 µM: SW-620 colon
47.7 µM: A498 renal
26.5 µM: SK-MEL-2 melanoma
48.4 µM: HCT-116 colon
37.1 µM: COLO 205 colon
70.8 µM: MDA-MB-231 breast
59.8 µM: MOLT-4 leukemia
60.2 µM: UACC-257 melanoma
93.5 µM: OVCAR-5 ovarian
32.4 µM: SF-539 CNS
31.1 µM: UACC-62 melanoma
66 µM: 786-0 renal
58.4 µM: SF-295 CNS
48.1 µM: SK-MEL-5 melanoma
50.9 µM: MALME-3M melanoma
not listed: HCC-2998 colon | SN12C renal | NCI-H460 lung | DU-145 prostate | HL-60(TB) leukemia | HOP-62 NSCLC | HCT-15 colon | OVCAR-4 ovarian
> 100 µM: all other assays above

Source: PubChem BioAssay (NCI)
